Counter-ions that a name gives are not always drawn. Like-named read-outs stand apart in the source and are kept apart here.
Columns and labels:
1405R3 = assay: High-throughput drug screen, CellTiter-Glo viability, 72 h; assay type: cell-based, human; parameters: AUC: scale not given here; conditions: for EC50: fitted dose-response curve, Min.Conc.tested 1, Max.Conc.tested 10000, read-out: EC50
Method: (§1) The cells were seeded and incubated with a gradient of concentrations of drugs for 72 h, after which the cell viability was assessed (Supplementary Fig. 1a). The drug library primarily comprises epigenetic drugs, including HDAC inhibitors, DNA methyltransferase inhibitors, and histone demethylase inhibitors, as well as conventional chemotherapies and kinase inhibitors (Supplementary Fig. 1b and Supplementary Table 1). […] To identify novel therapeutics against CCA, we conducted a high-throughput screen employing PerkinElmer’s integrated robotic Explorer G3 workstations. […] Following dilution to five specified concentrations, drugs were dispensed into 96-well plates in the sequence detailed in Supplementary Fig. 1a. The CCA cell lines were subsequently plated in 384-well plates at a density of 3000 cells per well in a 20 μL total volume. After a 24-h incubation, the compounds were added to the wells and incubated for 72 h. We then quantified cell viability via the CellTiter-Glo luminescent assay according to the manufacturer’s protocol. Signal detection was carried out on a Synergy2 plate reader operated by Gen5 software (BioTek). For data processing, the raw luminescence data were processed through the Breeze pipeline for curve fitting, yielding quality control metrics (e.g., Z-factors) and drug response parameters (AUC and DSS), as adapted from previous work.[54] Drug responses were evaluated on the basis of the drug sensitivity score (DSS), and a cutoff of ≥10 was used to define efficacy. The complete drug library and screening dataset are available in Supplementary Tables 1-3.
(§2) Supplementary Fig. 1. A high-throughput drug screen to identify drugs targeting CCA. a Schematic representation of the drug screening protocol. […] Each drug was tested at five different concentrations (10, 1, 0.1, 0.01, and 0.001 μM), and each treatment was replicated twice. b Classification of drugs used for screening.

783C-6 = assay: as above; assay type: cell-based, human; parameters: AUC: scale not given here; conditions: for EC50: read-out: EC50
Method: as §1, §2

[1] = 1405R3 DSRT analysis, area under the dose-response curve
[2] = 1405R3 DSRT analysis, lower asymptote of fitted dose-response curve
[3] = 783C-6 DSRT analysis, DSS calculated from the dose-response curve
[4] = 783C-6 DSRT analysis, MIN of the fitted dose-response curve
[5] = 783C-6 DSRT analysis, area under the dose-response curve
[6] = 1405R3 DSRT analysis, drug sensitivity score
[7] = Homo sapiens, 1405R3 DSRT analysis, CellTiter-Glo viability, 72 h, GI50
[8] = 783C-6 cells, DSS of DSRT analysis
[9] = 783C-6 cells, area under the dose-response curve
[10] = 783C-6 cells, minimum of dose-response curve
[11] = 1405R3 DSRT analysis, CellTiter-Glo, 72 h
[12] = 1405R3 DSRT analysis, slope of fitted dose-response curve
[13] = 783C-6 DSRT analysis, CellTiter-Glo viability, 72 h, fitted dose-response curve, Min.Conc.tested 1, Max.Conc.tested 10000
[14] = 783C-6 DSRT analysis, slope of the fitted dose-response curve
[15] = 783C-6 cells, slope of fitted dose-response curve
[16] = Homo sapiens, 1405R3 DSRT analysis, CellTiter-Glo, 72 h

Structure (SMILES) | DSS (1405R3; 1405R3 DSRT analysis, DSS) | AUC (1405R3; [1]) | MIN (1405R3; [2]) | DSS (783C-6; [3]) | MIN (783C-6; [4]) | AUC (783C-6; [5]) | DSS (1405R3; [6]) | DSS (783C-6; [8]) | AUC (783C-6; [9]) | MIN (783C-6; [10]) | SLOPE (1405R3; [12]) | further results
CCN(CCCOc1ccc2c(Nc3cc(CC(=O)Nc4cccc(F)c4)n[nH]3)ncnc2c1)CCOP(=O)(O)O [Barasertib] | 0 | 0.1 | 100 | 0 | 91.7 | 11.5 | – | – | – | – | – | –
CN(C)Cc1ccc(S(=O)(=O)n2ccc(/C=C/C(=O)NO)c2)cc1 [Resminostat] | – | 45 | 20.3 | – | – | – | 5 | 4.3 | 39.6 | 25.4 | – | EC50 (1405R3; [7]): 2.77 µM; EC50 (783C-6; Homo sapiens, 72 h): 3 µM
O=C([C@@H](Cc1cccc(C(F)(F)F)c1)NS(=O)(=O)c1cc(F)c2c(c1)CCNC2)N1CCCC1 [PFI-2 HCl] | – | 15.4 | 84.5 | – | – | – | 0 | 0 | 2.2 | 95.2 | – | –
COC(=O)c1ccc2c(c1)NC(=O)/C2=C(\Nc1ccc(N(C)C(=O)CN2CCN(C)CC2)cc1)c1ccccc1 [Nintedanib] | – | 13.7 | 84 | – | – | – | 0.8 | 1.6 | 17.9 | 72.2 | – | EC50 (783C-6; Homo sapiens, 72 h): 2.29 µM
CC(C)Oc1ccc(-c2c[nH]cc2CN(C)CCN)cc1 [MS023] | – | 7.3 | 75.6 | – | – | – | 0 | 3.9 | 57.8 | 80.8 | – | –
O=C(CCc1ccc(CN[C@H](C(=O)OC2CCCC2)C2CCCCC2)cn1)NO [GSK3117391] | 8.4 | 74.7 | 7.4 | 7.5 | 4.1 | 65.5 | – | – | – | – | -1.9 | EC50 (1405R3; [11]): 1.58 µM; EC50 (783C-6; [13]): 2.09 µM; SLOPE (783C-6; [14]): -2.5
O=C(CCCCCN1C(=O)c2cccc3cccc(c23)C1=O)NO [Scriptaid] | – | 77.8 | 11.5 | – | – | – | 9 | 8.6 | 74.4 | 3.2 | – | EC50 (1405R3; [7]): 1.33 µM; EC50 (783C-6; Homo sapiens, 72 h): 1.71 µM
N#Cc1c(-c2ccccc2)cc(-c2cc(Br)ccc2O)[nH]c1=O [TCS PIM-1 1] | – | 2.3 | 96.8 | – | – | – | 0 | 0 | 5.4 | 92.2 | -0.4 | SLOPE (783C-6; [15]): -0.4
Nc1cc(F)ccc1NC(=O)c1ccc(CNC(=O)/C=C/c2cccnc2)cc1 [Tucidinostat] | – | 73.3 | 44 | – | – | – | 7 | 6.5 | 59.3 | 25.1 | – | EC50 (1405R3; [7]): 0.607 µM; EC50 (783C-6; Homo sapiens, 72 h): 1.66 µM
O=C(NO)c1ccc(CC(=O)N(CCO)c2ccccc2)cc1 [HPOB] | 0 | 0.1 | 100 | 0 | 98.7 | 0.4 | – | – | – | – | -0.1 | SLOPE (783C-6; [14]): -1
COc1ccc(CCc2nc3cc(-c4c(C)noc4C)ccc3n2C[C@H](C)N2CCOCC2)cc1Cl [SGC-CBP30] | – | 28.3 | 84.6 | – | – | – | 0 | 0 | 4.1 | 86.4 | – | –
Cc1cc(-c2ccccc2)cc(C(=O)NNS(=O)(=O)c2ccccc2)c1F [WM-8014] | – | 16.3 | 89.5 | – | – | – | 0 | 0 | 5.5 | 81.8 | -0.1 | SLOPE (783C-6; [15]): -1
Cc1noc2c1-c1ccccc1C(c1ccc(Cl)cc1)=N[C@H]2CC(N)=O [CPI-0610] | 6.7 | 64.6 | 49.2 | 0.7 | 84.7 | 34.4 | – | – | – | – | – | EC50 (1405R3; [16]): 0.566 µM
N[C@H]1CC[C@H](N[C@@H]2C[C@H]2c2ccccc2)CC1 [ORY-1001] | – | 0.1 | 100 | – | – | – | 0 | 0 | 14.3 | 92.7 | – | –
CCCCCCCCCCCCCC(=S)NCCCC[C@H](NC(=O)OCc1ccccc1)C(=O)Nc1ccccc1 [Thiomyristoyl] | – | 18.7 | 87.9 | – | – | – | 0 | 0 | 2.1 | 92.9 | -0.1 | SLOPE (783C-6; [15]): -1
CCOC(=O)CCNc1cc(N2CCc3ccccc3CC2)nc(-c2ccccn2)n1 [GSK J4 HCl] | 2.7 | 26.1 | 65 | 0 | 70.3 | 8.9 | – | – | – | – | – | EC50 (1405R3; [16]): 1.8 µM
C[C@@H]1COC(Nc2ccc3ncnc(Nc4ccc(OCc5nccs5)c(Cl)c4)c3c2)=N1 [Varlitinib] | – | 11.5 | 91.8 | – | – | – | 0 | 1.5 | 22.8 | 79.7 | – | –
Cc1sc2c(c1C)C(c1ccc(Cl)cc1)=N[C@@H](CC(=O)Nc1ccc(O)cc1)c1nnc(C)n1-2 [OTX015] | – | 90.2 | 24.3 | – | – | – | 10.4 | 0 | 6.1 | 90.3 | – | EC50 (1405R3; [7]): 0.649 µM
CCN1CCN(C(=O)Cc2ccc(Nc3ncc(F)c(Nc4ccc(C(=O)Nc5ccccc5Cl)cc4)n3)cc2)CC1 [Aurora A Inhibitor I] | 3 | 28 | 50 | 4.6 | 32 | 41.2 | – | – | – | – | -2.5 | EC50 (1405R3; [11]): 2.81 µM; EC50 (783C-6; [13]): 2.51 µM; SLOPE (783C-6; [14]): -2.5
c1ccc([C@@H]2C[C@H]2NC2CCNCC2)cc1 [GSK-LSD1 2HCl] | 0 | – | – | – | – | – | – | – | – | – | – | D1 (1405R3): 104.9; D2 (1405R3): 104.6; D3 (1405R3): 91.3; D4 (1405R3): 100.7; D5 (1405R3): 129.6; MAX (1405R3): 100; MIN (1405R3): 91.3; SLOPE (1405R3): -0.4; AUC (1405R3; 72 h): 5.8; D1 (783C-6): 98.8; D2 (783C-6): 106.9; D3 (783C-6): 94.2; D4 (783C-6): 93.9; D5 (783C-6): 108.3; MAX (783C-6): 100; MIN (783C-6): 93.9; SLOPE (783C-6): -0.3; AUC (783C-6; 72 h): 6; DSS (783C-6; 72 h): 0
COc1cccc2c1C(=O)c1c(O)c3c(c(O)c1C2=O)C[C@@](O)(C(=O)CO)C[C@@H]3O[C@H]1C[C@H](N)[C@@H](O)[C@H](C)O1 [Epirubicin] | 7.1 | 64.9 | 27.7 | 13.9 | 33.9 | 113.1 | – | – | – | – | – | EC50 (1405R3; [16]): 1.31 µM; EC50 (783C-6; Homo sapiens, 72 h): 0.195 µM
O=C(O[C@@H]1Cc2c(O)cc(O)cc2O[C@@H]1c1cc(O)c(O)c(O)c1)c1cc(O)c(O)c(O)c1 [(-)-Epigallocatechin Gallate] | 0 | 0.7 | 97.6 | 0 | 75.7 | 22.9 | – | – | – | – | – | –
CC(=O)Nc1ccc(C(=O)Nc2ccc(F)cc2N)cc1 [BRD3308] | 0 | 12.9 | 91.7 | 0 | 86.9 | 3.9 | – | – | – | – | -0.1 | SLOPE (783C-6; [14]): -1
O=C(CCCCCCNC(=O)c1cnc(N(c2ccccc2)c2ccccc2)nc1)NO [Ricolinostat] | – | 20.6 | 71.1 | – | – | – | 1.9 | 2.2 | 22.4 | 66.7 | – | EC50 (1405R3; [7]): 1.95 µM; EC50 (783C-6; Homo sapiens, 72 h): 2.14 µM
NC(=O)C1CCCc2c1[nH]c1ccc(Cl)cc21 (stereo not drawn) [Selisistat] | – | 1 | 97.8 | – | – | – | 0 | 0 | 11.9 | 93.6 | -0.6 | SLOPE (783C-6; [15]): -0.1
COc1cc2c(NC3CCN(C(C)C)CC3)nc(N3CCC(F)(F)CC3)nc2cc1OCCCN1CCCC1 [UNC0642] | – | 0.1 | 99.3 | – | – | – | 0 | 0 | 7.2 | 94 | – | –

— publication PMC12518634, “The noncanonical function of liver-type phosphofructokinase potentiates the efficacy of HDAC inhibitors in cancer” (Signal Transduction and Targeted Therapy, 2025)
